Earlier results in patent US8021854B2, “Method of treating vascular disease” (priority 2007, dated 2011).
Like-named read-outs stand apart in the source and are kept apart here.

Legend:
[1] = test system: patients with myeloproliferative disorders; settings: 577 patients
[2] = test system: patients with and without significant cardiovascular history
[3] = in vivo
[4] = test system: patients with essential thrombocythemia at high risk for vascular events; settings: versus hydroxyurea group
[5] = test system: platelets of patients with essential thrombocythaemia; settings: during therapy
[6] = test system: patients with thrombocythemic states; settings: 942 patients
vaso-occlusive disease = settings: low doses of aspirin

## O=C1CN2Cc3c(ccc(Cl)c3Cl)N=C2N1 [anagrelide]
[1]; mean treatment duration 65 weeks
  study population that discontinued therapy due to adverse events: Sixteen
[1]; 23 patients
  discontinuation of therapy due to cardiovascular adverse events: 4%
[1]; 209 patients
  palpitations and tachycardia (patients): 36%
[1]; four had preexisting coronary artery disease
  patients who died from cardiovascular adverse events: Seven
[1]; fourteen patients
  congestive heart failure (patients): 2.4%
[2]; 492 patients
  severity of cardiovascular events (palpitations, edema, tachycardia): generally mild and did not increase cardiovascular disease morbidity
[2]; patients with history of cardiac disease, 22 of 90
  patients experiencing cardiovascular adverse events: 24%
[2]; patients without history of cardiac disease, 30 of 402, p=0.0001
  patients experiencing cardiovascular adverse events: 7%
[3]
  adverse reaction: chest pain: 8%
  adverse reaction: peripheral edema: 9%
  adverse reaction: tachycardia: 8%
[4]; P<0.001
  withdrawal from assigned treatment: more likely to withdraw
[4]; median follow-up 39 months, 95 percent CI 1.04 to 2.37, P=0.03
  odds ratio of reaching the primary end point: 1.57
[5]
  functional or chemical platelet abnormalities: no functional or chemical abnormality was improved
  platelet count: corrected
  platelet volume: constantly increased
[6]
  deaths: 50
  deaths from cardiac causes: 15
  fluid retention: 22%
  palpitations: 26%
  patients who discontinued the agent due to adverse events: Thirteen

## CC(=O)Oc1ccccc1C(=O)O [aspirin, Acetyl salicylic acid]
vaso-occlusive disease
  incidence of major haemorrhage: less than 1%
vaso-occlusive disease; vaso-occlusive disease, Physician's Health Study
  morbidity and mortality reductions: 45%
